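96-well plates; 48 h exposure; 5 concentrations. Endpoints by linear interpolation between flanking doses. Not reached: highest tested concentration assigned. TGI: total growth inhibition.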
What was measured:
Assay in all cases: NCI tumour cell line growth inhibition, 48 h
BT-549 breast = test system: BT-549 breast
MCF7 breast = test system: MCF7 breast
CCRF-CEM leukemia = test system: CCRF-CEM leukemia
SK-OV-3 ovarian = test system: SK-OV-3 ovarian
EKVX NSCLC = test system: EKVX NSCLC
MDA-MB-231 breast = test system: MDA-MB-231 breast
OVCAR-8 ovarian = test system: OVCAR-8 ovarian
MDA-N = test system: MDA-N
SNB-19 CNS = test system: SNB-19 CNS
HOP-92 NSCLC = test system: HOP-92 NSCLC
NCI-H23 lung = test system: NCI-H23 lung
OVCAR-4 ovarian = test system: OVCAR-4 ovarian
786-0 renal = test system: 786-0 renal
NCI-H522 lung = test system: NCI-H522 lung
SF-295 CNS = test system: SF-295 CNS
CAKI-1 renal = test system: CAKI-1 renal
MOLT-4 leukemia = test system: MOLT-4 leukemia
LOX IMVI melanoma = test system: LOX IMVI melanoma
MDA-MB-435 = test system: MDA-MB-435
IGROV1 ovarian = test system: IGROV1 ovarian
HOP-62 NSCLC = test system: HOP-62 NSCLC
HCT-116 colon = test system: HCT-116 colon
ACHN renal = test system: ACHN renal
SK-MEL-28 melanoma = test system: SK-MEL-28 melanoma
HL-60(TB) leukemia = test system: HL-60(TB) leukemia
T-47D breast = test system: T-47D breast
HT29 colon = test system: HT29 colon
UACC-62 melanoma = test system: UACC-62 melanoma
K-562 leukemia = test system: K-562 leukemia
SW-620 colon = test system: SW-620 colon
SK-MEL-5 melanoma = test system: SK-MEL-5 melanoma
KM12 colon = test system: KM12 colon
TK-10 renal = test system: TK-10 renal
SR leukemia = test system: SR leukemia
SF-268 CNS = test system: SF-268 CNS
M14 melanoma = test system: M14 melanoma
U251 CNS = test system: U251 CNS
SNB-75 CNS = test system: SNB-75 CNS
DU-145 prostate = test system: DU-145 prostate
OVCAR-5 ovarian = test system: OVCAR-5 ovarian
OVCAR-3 ovarian = test system: OVCAR-3 ovarian
A549 NSCLC = test system: A549 NSCLC
SN12C renal = test system: SN12C renal
HCT-15 colon = test system: HCT-15 colon
UACC-257 melanoma = test system: UACC-257 melanoma
MALME-3M melanoma = test system: MALME-3M melanoma
NCI-H226 lung = test system: NCI-H226 lung
RPMI-8226 leukemia = test system: RPMI-8226 leukemia
SK-MEL-2 melanoma = test system: SK-MEL-2 melanoma
PC-3 prostate = test system: PC-3 prostate
SF-539 CNS = test system: SF-539 CNS
COLO 205 colon = test system: COLO 205 colon
HCC-2998 colon = test system: HCC-2998 colon
HS 578T breast = test system: HS 578T breast
NCI-H460 lung = test system: NCI-H460 lung
A498 renal = test system: A498 renal
NCI/ADR-RES ovarian = test system: NCI/ADR-RES ovarian
UO-31 renal = test system: UO-31 renal
RXF 393 renal = test system: RXF 393 renal

Compound: Cc1c(Cl)cccc1NC(=O)/C=C/c1ccccc1
- TGI (BT-549 breast): > 100 µM
- TGI (MCF7 breast): > 100 µM
- TGI (CCRF-CEM leukemia): > 100 µM
- TGI (SK-OV-3 ovarian): > 100 µM
- TGI (EKVX NSCLC): > 100 µM
- TGI (MDA-MB-231 breast): 96.3 µM
- TGI (OVCAR-8 ovarian): > 100 µM
- TGI (MDA-N): > 100 µM
- TGI (SNB-19 CNS): > 100 µM
- TGI (HOP-92 NSCLC): > 100 µM
- TGI (NCI-H23 lung): > 100 µM
- TGI (OVCAR-4 ovarian): > 100 µM
- TGI (786-0 renal): > 100 µM
- TGI (NCI-H522 lung): > 100 µM
- TGI (SF-295 CNS): > 100 µM
- TGI (CAKI-1 renal): 73.3 µM
- TGI (MOLT-4 leukemia): > 100 µM
- TGI (LOX IMVI melanoma): > 100 µM
- TGI (MDA-MB-435): > 100 µM
- TGI (IGROV1 ovarian): > 100 µM
- TGI (HOP-62 NSCLC): > 100 µM
- TGI (HCT-116 colon): > 100 µM
- TGI (ACHN renal): > 100 µM
- TGI (SK-MEL-28 melanoma): > 100 µM
- TGI (HL-60(TB) leukemia): > 100 µM
- TGI (T-47D breast): > 100 µM
- TGI (HT29 colon): > 100 µM
- TGI (UACC-62 melanoma): > 100 µM
- TGI (K-562 leukemia): > 100 µM
- TGI (SW-620 colon): > 100 µM
- TGI (SK-MEL-5 melanoma): > 100 µM
- TGI (KM12 colon): > 100 µM
- TGI (TK-10 renal): > 100 µM
- TGI (SR leukemia): > 100 µM
- TGI (SF-268 CNS): > 100 µM
- TGI (M14 melanoma): > 100 µM
- TGI (U251 CNS): > 100 µM
- TGI (SNB-75 CNS): > 100 µM
- TGI (DU-145 prostate): > 100 µM
- TGI (OVCAR-5 ovarian): > 100 µM
- TGI (OVCAR-3 ovarian): > 100 µM
- TGI (A549 NSCLC): > 100 µM
- TGI (SN12C renal): > 100 µM
- TGI (HCT-15 colon): > 100 µM
- TGI (UACC-257 melanoma): > 100 µM
- TGI (MALME-3M melanoma): > 100 µM
- TGI (NCI-H226 lung): > 100 µM
- TGI (RPMI-8226 leukemia): > 100 µM
- TGI (SK-MEL-2 melanoma): > 100 µM
- TGI (PC-3 prostate): > 100 µM
- TGI (SF-539 CNS): > 100 µM
- TGI (COLO 205 colon): > 100 µM
- TGI (HCC-2998 colon): > 100 µM
- TGI (HS 578T breast): > 100 µM
- TGI (NCI-H460 lung): > 100 µM
- TGI (A498 renal): > 100 µM

Compound: COC(=O)C(=O)C(C(=O)C(=O)Nc1ccccc1OC)c1nc2ccc([N+](=O)[O-])cc2[nH]c1=O (configuration not stated)
- TGI (BT-549 breast): > 100 µM
- TGI (MCF7 breast): > 100 µM
- TGI (CCRF-CEM leukemia): > 100 µM
- TGI (SK-OV-3 ovarian): > 100 µM
- TGI (EKVX NSCLC): > 100 µM
- TGI (MDA-MB-231 breast): > 100 µM
- TGI (OVCAR-8 ovarian): > 100 µM
- TGI (MDA-N): > 100 µM
- TGI (SNB-19 CNS): > 100 µM
- TGI (HOP-92 NSCLC): > 100 µM
- TGI (OVCAR-4 ovarian): > 100 µM
- TGI (786-0 renal): > 100 µM
- TGI (NCI-H522 lung): > 100 µM
- TGI (NCI/ADR-RES ovarian): > 100 µM
- TGI (SF-295 CNS): > 100 µM
- TGI (CAKI-1 renal): > 100 µM
- TGI (MOLT-4 leukemia): > 100 µM
- TGI (LOX IMVI melanoma): > 100 µM
- TGI (MDA-MB-435): > 100 µM
- TGI (IGROV1 ovarian): > 100 µM
- TGI (HOP-62 NSCLC): > 100 µM
- TGI (HCT-116 colon): > 100 µM
- TGI (ACHN renal): > 100 µM
- TGI (SK-MEL-28 melanoma): > 100 µM
- TGI (UO-31 renal): > 100 µM
- TGI (HL-60(TB) leukemia): > 100 µM
- TGI (T-47D breast): > 100 µM
- TGI (HT29 colon): > 100 µM
- TGI (UACC-62 melanoma): > 100 µM
- TGI (K-562 leukemia): > 100 µM
- TGI (SW-620 colon): > 100 µM
- TGI (SK-MEL-5 melanoma): > 100 µM
- TGI (KM12 colon): > 100 µM
- TGI (TK-10 renal): > 100 µM
- TGI (SR leukemia): > 100 µM
- TGI (SF-268 CNS): > 100 µM
- TGI (M14 melanoma): > 100 µM
- TGI (RXF 393 renal): > 100 µM
- TGI (U251 CNS): > 100 µM
- TGI (SNB-75 CNS): > 100 µM
- TGI (OVCAR-5 ovarian): > 100 µM
- TGI (OVCAR-3 ovarian): > 100 µM
- TGI (A549 NSCLC): > 100 µM
- TGI (SN12C renal): > 100 µM
- TGI (HCT-15 colon): > 100 µM
- TGI (UACC-257 melanoma): > 100 µM
- TGI (MALME-3M melanoma): > 100 µM
- TGI (NCI-H226 lung): > 100 µM
- TGI (RPMI-8226 leukemia): > 100 µM
- TGI (SK-MEL-2 melanoma): > 100 µM
- TGI (PC-3 prostate): > 100 µM
- TGI (SF-539 CNS): > 100 µM
- TGI (HCC-2998 colon): > 100 µM
- TGI (HS 578T breast): > 100 µM
- TGI (NCI-H460 lung): > 100 µM
- TGI (A498 renal): > 100 µM

Source: PubChem BioAssay (NCI)
